Assays:
Format in all cases: in vivo
[1] = test system: Corn Earworm (Helicoverpa zea, HELIZE, CEW); experiment: Bioassay 4: corn earworm, artificial diet, 128-cell tray; details: AI alone
In short: (§1)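 Test solutions (0.0000004–0.04% w/v, i.e. 0.00005–5 μg/cm² on diet) were pipetted onto artificial lepidopteran diet and one 2nd-instar larva was placed per cell, 8 replicates per species, held at ~26° C. Live larvae were counted after 5 days; percent control used Abbott's correction against a solvent check.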

[2] = test system: Western Flower Thrips (Frankliniella occidentalis, FRANOC, WFT); experiment: Bioassay 3: western flower thrips, cotton leaf disc dip; details: 3 days
Experimental: Stock solutions of F1 and various active ingredients were prepared initially at a concentration of 0.1 mg/mL using acetone as a diluent. Stock solutions were prepared with F1 as well as for each of the active ingredients individually. Test solutions were prepared from the stock solutions. Test solutions were prepared containing F1, the individual active ingredients, and mixtures of F1 with each of the active ingredients. The test solutions for F1 and the individual active ingredients were prepared by adding 500 μL of stock solution to a 25 mL glass vial, then adding 500 μL of acetone, followed by the addition of 9 mL water with 0.025% Tween® 20 to create a 0.0005% (w/v) solution. The test solutions containing mixtures of F1, and the individual active ingredients were prepared by adding 500 μL of the active ingredient stock solution to a 25 mL glass vial, followed by 500 μL of the F1 stock solution, then by the addition of 9 mL water with 0.025% Tween® 20 to create a test solution containing 0.0005% (w/v) F1 and 0.0005% (w/v) of the active ingredient. Each test solution was serially diluted to create desired doses of test solutions (0.0005% (w/v), 0.000125% (w/v), 0.00003125% (w/v), 0.0000078% (w/v), and 0.00000195% (w/v)).
The test solutions were tested against WFT using the following procedure: Leaf discs (2.7 cm in diameter) were cut from the true leaves of cotton plants. Leaf discs were dipped into the test solutions and shaken to ensure complete coverage of the leaf disc and then placed in Millipore® PetriSlides containing a filter paper disc. Treated leaf discs were air dried for approximately 1 hour. Each leaf disc was infested with 5 WFT (9-10-day old nymphs) by placement on each leaf disc, and the PetriSlides were capped to prevent escape. Each treatment was replicated three times and the test treatments were held at approximately 26° C. and ambient relative humidity (RH) prior to grading. Reference discs (solvent check) were treated with the diluent only. Evaluation was conducted by counting the number of live WFT under magnification 3 days after treatment. Percent control was measured using Abbott's correction formula (W. S. Abbott, J. Econ. Entomol. 18 (1925), pp. 265-267) as follows:
where X=No. of live nymphs on solvent check leaf discs and Y=No. of live nymphs on treated leaf discs. In Table B3 the “Expected % Control” was calculated using the method described in Colby S. R., Weeds, 1967, 15, 20-22. Bioassay 4: Corn Earworm (Helicoverpa zea, HELIZE, “CEW”), Fall Armyworm (Spodoptera frugiperda, LAPHFR, “FAW”), and Soybean Looper (Chrysodeixis includens, PSEPIN, “SBL”).

[3] = test system: Soybean Looper (Chrysodeixis includens, PSEPIN, SBL); experiment: Bioassay 4: soybean looper, artificial diet, 128-cell tray; details: AI alone, 0.000004 wt %
In short: as §1

[4] = test system: Fall Armyworm (Spodoptera frugiperda, LAPHFR, FAW); experiment: Bioassay 4: fall armyworm, artificial diet, 128-cell tray; details: AI alone
In short: as §1

[5] = test system: Brown Planthopper (Nilaparvata lugens, NILALU, BPH); experiment: Bioassay 6: brown planthopper, sprayed rice seedlings; details: AI alone, AI Rate 0.049 g/ha, 6 days
Experimental: At these rates, F1 and the individual active ingredients were tested at a ratio of 1:1. […] F1 and triflumezopyrim were tested at a ratio of 16:1. Test solutions were prepared containing F1, the individual active ingredients, and mixtures of F1 with each of the active ingredients. Test solutions were prepared by weighing 5 mg of each test chemistry (either alone or in combination depending on the treatment) into a 25 mL glass vial. Next, 1 mL of acetone was added to each vial to dissolve the test chemistries, followed by 19 mL of water with 0.125% Tween 20 adjuvant. This test solution represented the 50 g/ha treatment, which was then serially diluted four-fold to create the three lower rates of 12.5, 3.125, and 0.78 g/ha. Triflumezopyrim was prepared in a similar manner, but two additional serial dilutions were conducted to create solutions representing 6 rates of 12.5, 3.125, 0.78, 0.19, 0.049, and 0.012 g/ha. The higher two doses were discarded, and the four lower doses were used for testing. Each rate was replicated four times, and solvent blanks were used as control treatments.
Five (5) rice seedlings (10-12 days old) planted in 3-inch pots were used as test plants. Rice seedlings were grown in soil and the soil was covered with a 2% agar solution. The test solutions were applied to test plants using a Devries laboratory research sprayer, set to spray at 200 liters per hectare (L/ha) using a TeeJet hollow cone nozzle. Following application, the rice seedlings were dried for 1 hour, after which a single clear plastic tube (2 inches in diameter×12 inches in height) was placed over the seedlings in each pot. The tube was pushed down into the agar to create a sealed test chamber. The agar prevented insects from hiding in the soil and made adult collection and grading easier. Ten to fifteen (10-15) 5th instar BPH nymphs were transferred to each test chamber using a vacuum aspirator. Immediately following BPH infestation, the test chamber was covered with a piece of grade 90 cheesecloth and secured with a rubber band, sealing the test chamber. The test chambers were held at 25° C. for 6 days, after which the total number of live insects was counted in each test chamber. Percent control was measured using Abbott's correction formula (W. S. Abbott, J. Econ. Entomol. 18 (1925), pp. 265-267) as follows:
where X=No. of live insects on solvent check and Y=No. of live insects in treated chambers. In Table B6 the “Expected % Control” was calculated using the method described in Colby S. R., Weeds, 1967, 15, 20-22. Bioassay 7: Corn Earworm (Helicoverpa zea, HELIZE, “CEW”), Fall Armyworm (Spodoptera frugiperda, LAPHFR, “FAW”), Beet Armyworm (Spodoptera exigua, LAPHEG, “BAW”),and Soybean Looper (Chrysodeixis includens, PSEPIN, “SBL”).

[6] = test system: Beet Armyworm (Spodoptera exigua, LAPHEG, BAW); experiment: Bioassay 7: beet armyworm, artificial diet, 96 well plate; details: AI alone at 0.4 wt %
Experimental: (§2) The test solutions were tested against CEW, FAW, BAW, and SBL using the following procedure: an artificial lepidopteran diet (Multispecies Lepidopteran Diet, Southland Products) was distributed in 96 well plate. Twenty μL of test solution was pipetted onto a cell in the bioassay plate. […] Each treatment was replicated 5 times for each species. Approximately five first instar CEW, FAW, BAW, or SBL larva were placed on top of the diet in each cell and was contained with a clear perforated adhesive lid. Test trays were held at approximately 25° C. and ambient relative humidity prior to grading. After five days, the number of cells where all the larvae were dead were recorded as 100% and averaged across all replicates; then the percent control was measured using Abbott's correction formula (W. S. Abbott, J. Econ. Entomol. 18 (1925), pp. 265-267) as follows:
(§3) where X=No. of live larvae on solvent check and Y=No. of live larvae on treated diet. In Table 7 the “Expected % Control” was calculated using the method described in Colby S. R., Weeds, 1967, 15, 20-22. Bioassay 8: Western Corn Rootworm (Diabrotica virgifera virgifera, DIABVI, “WCR”)

[7] = test system: Corn Earworm (Helicoverpa zea, HELIZE, CEW); experiment: Bioassay 7: corn earworm, artificial diet, 96 well plate; details: AI alone at 0.4 wt %
Experimental: as §2, §3

[8] = test system: Western Corn Rootworm (Diabrotica virgifera virgifera, DIABVI, WCR); experiment: Bioassay 8: western corn rootworm, soil drench, corn root protection; details: AI alone, DIABVI, soil drench, 13 days
Experimental: Corn seeds were planted in steam pasteurized soil filled greenhouse pots. Western corn rootworm Diabrotica virgifera virgifera eggs supplied from the Corteva Agriscience in Johnston, IA US, were suspended in a 0.08% agar solution added into the soil. Stock solutions of F1 and active ingredients were prepared at a concentration of either 250 or 500 ugai/10 mL for F1 and active ingredients at the ratios of (F1:AI) 1:0.004; 1:0.01; 1:0.02; 1:0.04; 1:0.08; 1:0.1; 1:0.15; 1:0.2; 1:0.4; 1:2; or 1:4, using a 1:1 solution of acetone:water as a diluent. A soil application of solutions were applied as a 10 mL drench over the soil. Plants were grown in the greenhouse for 13 days at 25 C after which the roots were removed from the soil, washed, and measured to determine the length of the median nodal roots. The measured lengths were compared to the infested and un-infested untreated checks to determine the mean percent control offered to protect the corn roots.

[9] = test system: Fall Armyworm (Spodoptera frugiperda, LAPHFR, FAW); experiment: Bioassay 7: fall armyworm, artificial diet, 96 well plate
Experimental: as §2, §3

[10] = test system: Soybean Looper (Chrysodeixis includens, PSEPIN, SBL); experiment: Bioassay 7: soybean looper, artificial diet, 96 well plate; details: CL; AI alone at 0.4 wt %
Experimental: as §2, §3

Compound: CCN(C(=O)CCS(C)(=O)=O)c1sc(-c2cccnc2)nc1Cl [AI-1, N-(4-chloro-2-(pyridin-3-yl)thiazol-5-yl)-N-ethyl-3-(methylsulfonyl)propanamide]
- Average % Control AI ([1]; 0.000004 wt %): 0.0%
- Average % Control AI ([1]; 0.00004 wt %): 0.0%
- Average % Control AI ([2]; AI alone at 1:1 rate to F1 0.78 (10^-6 Wt %)): 9.5%
- Average % Control AI [3]: 12.5%
- Average % Control AI ([4]; 0.000004 wt %): 0.0%
- Average % Control AI [5]: 0.0%

Compound: Abamectin
- Average % Control AI ([1]; 0.000004 wt %): 0.0%
- Average % Control AI ([1]; 0.00004 wt %): 0.0%
- Average % Control AI ([2]; AI alone at 1:1 rate to F1 3.125 (10^-6 Wt %)): 31.0%
- Average % Control AI ([4]; 0.00004 wt %): 0.0%
- Average % Control AI [5]: 40.7%

Compound: Thiabendazole
- Average % Control AI [6]: 0.0%
- Average % Control AI [7]: 0.0%
- Average % Control AI ([8]; UgActive AI 50): 16.8%

Compound: Inpyrfluxam
- Average % Control AI ([9]; AI alone at 0.4 wt %): 0.0%
- Average % Control AI [7]: 12.5%
- Average % Control AI [10]: 0.0%
- Average % Control AI ([8]; UgActive AI 1): 0.0%

Compound: Spinetoram
- Average % Control AI ([1]; 0.000004 wt %): 0.0%
- Average % Control AI ([1]; 0.00004 wt %): 25.0%
- Average % Control AI [3]: 25.0%
- Average % Control AI ([4]; 0.000004 wt %): 0.0%
- Average % Control AI [5]: 2.5%

Compound: CC1(C)[C@H](C(=O)O[C@H](C#N)c2cccc(Oc3ccccc3)c2)[C@@H]1C=C(Br)Br [Deltamethrin]
- Average % Control AI ([9]; AI alone at 0.004 wt %): 0.0%
- Average % Control AI ([8]; UgActive AI 1): 17.0%

Compound: CC1(C)CCC(=Cc2ccc(Cl)cc2)C1(O)Cn1cncn1 (centres unmarked) [Titriconazole]
- Average % Control AI [6]: 0.0%
- Average % Control AI [7]: 0.0%
- Average % Control AI ([8]; UgActive AI 100): 0.0%

Compound: Cn1cc(C(=O)Nc2ccccc2C2CC2C2CC2)c(C(F)F)n1 (centres unmarked) [Sedaxane]
- Average % Control AI ([9]; AI alone at 0.4 wt %): 0.0%
- Average % Control AI [6]: 0.0%
- Average % Control AI [7]: 0.0%
- Average % Control AI [10]: 0.0%
- Average % Control AI ([8]; UgActive AI 10): 0.0%

Compound: OC(Cc1ccccc1Cl)(Cn1nc[nH]c1=S)C1(Cl)CC1 (centres unmarked) [Prothioconazole]
- Average % Control AI [7]: 0.0%
- Average % Control AI ([8]; UgActive AI 20): 0.0%
